Laboratory results taken from patent US7470715B2, “Estrogen modulators” (Pfizer Inc., priority 2005, dated 2008).

Legend:
[1] = target: T1, ligand binding domain of the estrogen receptor alpha chain (ERαLBD) (Homo sapiens, UniProt P03372); test: ER agonist cell assay (ERα), Huh-7 co-transfection, luciferase; assay type: cell-based; settings: for EC50: Huh-7 cells co-transfected with pG5luc and ERαLBD, overnight incubation, luciferase; for ERα % of Max E2 Response: percent of the maximum estradiol fold change, Huh-7, pG5luc and ERαLBD
T1 construct: expressed in transfected cells; host or cells: Huh-7 human hepatoma cells, transient transfection with FuGENE 6
T1 sequence (P03372 311-547 limits assumed): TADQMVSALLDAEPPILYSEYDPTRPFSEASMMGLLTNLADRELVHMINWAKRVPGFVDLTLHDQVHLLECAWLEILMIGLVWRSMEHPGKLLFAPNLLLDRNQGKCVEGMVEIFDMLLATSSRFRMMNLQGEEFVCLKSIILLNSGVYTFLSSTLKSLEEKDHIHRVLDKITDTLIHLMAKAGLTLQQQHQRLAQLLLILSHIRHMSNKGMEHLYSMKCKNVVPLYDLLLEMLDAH
Protocol: (§1) The compounds ability to mimic the effects of estrogen on the estrogen receptor were determined in a whole cell assay as described immediately below.
(§2) Experimental Procedure for ER Agonist Cell Assay
(§3) • Cell line and plasmids: The human hepatoma cell line Huh-7 was used for co-transfections. Cells were maintained in culture medium and split when they reached 80-90% confluency. Three plasmids were routinely used in the assay. pG5luc contained the firefly luciferase gene and was obtained from Promega. […] Cell Culture Media and Reagents:
(§4) Culture medium: DMEM (phenol red free), 10% charcoal treated HyClone serum, 1% L-glutamine, and 1% penicillin/streptomycin
(§5) Transfection medium: DMEM (phenol red free) and 10% charcoal treated HyClone serum
(§6) Luciferase reagents: Dual-Glo Luciferase Kit (Promega cat #E2980) was used for determination of luciferase activity.
(§7) Transient transfections were preformed using the lipophilic reagent FuGENE 6 (Roche). Cells were split and seeded at 7.2×10^6/150 cm^2 flask in 20 mL of transfection medium. 5-6 hrs later cells were co-transfected with either pG5luc and ERαLBD or pG5luc and ERβLBD(pm418). Transfected cells grew overnight and were then used the next day.
(§8) Cells transfected 24 hrs earlier were harvested, counted, and seeded in wells containing compound at a density of 1×10^4 cells/well. […] Cells were incubated overnight at 37° C. and 5% CO2 in the presence of compound. The following day medium was aspirated from the wells and 100 ul of Dual-Glo™ Luciferase Reagent were added to each well. Plates were incubated at room temperature for 20 minutes and firefly luminescence was measured on a luminometer. Next, 50 ul of Dual-Gbo™ Stop & Glo® Reagent were added to each well and after 20 minutes at room temperature the Renilla luminescence was measured on a luminometer. Values from each well were normalized by dividing the firefly luminescence by the Renilla luminescence. Estradiol was used as the standard and run in each assay. The fold induction over background for each compound was compared to the maximum fold induction for estradiol in each assay. […] Those compounds that were not tested, or the data was unavailable are marked as NT.

[2] = target: ligand binding domain of the estrogen receptor beta chain (ERβLBD) that contained a point mutation at amino acid residue 418 (pm418) (Homo sapiens, UniProt Q92731); test: ER agonist cell assay (ERβ), Huh-7 co-transfection, luciferase; assay type: cell-based; settings: for EC50: Huh-7 cells co-transfected with pG5luc and ERβLBD(pm418), overnight incubation, luciferase; for ERβ % of Max E2 Response: percent of the maximum estradiol fold change, Huh-7, pG5luc and ERβLBD(pm418)
Protocol: as §1, §2, §3, §4, §5, §6, §7, §8

EC50 [1] [nM]	ERα % of Max E2 Response [1] [%]	EC50 [2] [nM]	ERβ % of Max E2 Response [2] [%]	SMILES
43	45.4	136	17.7	Oc1ccc(-c2noc(C3(C(O)C4CC4)CC3)c2-c2ccccc2)cc1 (racemic) [Example 14, (±)-4-{5-[1-(Cyclopropyl-hydroxy-methyl)-cyclopropyl]-4-phenyl-isoxazol-3-yl}-phenol]
44.3	63.2		2.37	Oc1ccc(-c2noc(C3(C(O)c4ccccc4)CC3)c2-c2ccccc2)cc1 (racemic) [Example 16, (±)-4-{5-[1-(Hydroxy-phenyl-methyl)-cyclopropyl]-4-phenyl-isoxazol-3-yl}-phenol]
34.4	56.8	126	3.82	CC(C)C(O)C1(c2onc(-c3ccc(O)cc3)c2-c2ccccc2)CC1 (racemic) [Example 17, (±)-4-{5-[1-(1-Hydroxy-2-methyl-propyl)-cyclopropyl]-4-phenyl-isoxazol-3-yl}-phenol]
12.6	30.9	> 10000	>0.860	CC(C)C(C)NCC1(c2onc(-c3ccc(O)cc3)c2-c2ccccc2)CC1 (racemic) [Example 24, (±)-4-(5-{1-[(1,2-Dimethyl-propylamino)-methyl]-cyclopropyl}-4-phenyl-isoxazol-3-yl)-phenol]
97.1	32.2	568	1.32	CC(C)OCC1(c2onc(-c3ccc(O)cc3)c2-c2ccccc2)CC1 [Example 3, 4-[5-(1-Isopropoxymethyl-cyclopropyl)-4-phenyl-isoxazol-3-yl]-phenol]
208	17.2	> 10000	>0.485	COc1cccc(F)c1OCC1(c2onc(-c3ccc(O)cc3)c2-c2ccccc2)CC1 [Example 7, 4-{5-[1-(2-Fluoro-6-methoxy-phenoxymethyl)-cyclopropyl]-4-phenyl-isoxazol-3-yl}-phenol]
25.8	40.4	68.8	3.65	COCC1(c2onc(-c3ccc(O)cc3)c2-c2ccccc2)CC1 [Example 8, 4-[5-(1-Methoxymethyl-cyclopropyl)-4-phenyl-isoxazol-3-yl]-phenol]
17.7	15.1	197	1.18	COCOCC1(c2onc(-c3ccc(O)cc3)c2-c2ccccc2)CC1 [Example 10, 4-[5-(1-Methoxymethoxymethyl-cyclopropyl)-4-phenyl-isoxazol-3-yl]-phenol]
171	23.4	14.7	1.98	Oc1ccc(-c2noc(C3(COCC(F)(F)F)CC3)c2-c2ccccc2)cc1 [Example 11, 4-{4-Phenyl-5-[1-(2,2,2-trifluoro-ethoxymethyl)-cyclopropyl]-isoxazol-3-yl}-phenol]
354	26.2		0.577	Cc1ncccc1OCC1(c2onc(-c3ccc(O)cc3)c2-c2ccccc2)CC1 [Example 12, 4-{5-[1-(2-Methyl-pyridin-3-yloxymethyl)-cyclopropyl]-4-phenyl-isoxazol-3-yl}-phenol]
	19		0.552	COc1ncccc1OCC1(c2onc(-c3ccc(O)cc3)c2-c2ccccc2)CC1 [Example 13, 4-{5-[1-(2-Methoxy-pyridin-3-yloxymethyl)-cyclopropyl]-4-phenyl-isoxazol-3-yl}-phenol]
66	20.9		1.03	CC[C@@H](NCC1(c2onc(-c3ccc(O)cc3)c2-c2ccccc2)CC1)c1ccccc1 [Example 26, 4-[4-Phenyl-5-(1-{[(1R)-1-phenyl-propylamino]-methyl}-cyclopropyl)-isoxazol-3-yl]-phenol]
	11.4		0.601	Oc1ccc(-c2noc(C3(CNc4cccc(C(F)(F)F)c4)CC3)c2-c2ccccc2)cc1 [Example 29, 4-(4-Phenyl-5-{1-[(3-trifluoromethyl-phenylamino)-methyl]-cyclopropyl}-isoxazol-3-yl)-phenol]
26.9	30	151	1.35	Oc1ccc(-c2noc(C3(CN4CCOCC4)CC3)c2-c2ccccc2)cc1 [Example 31, 4-[5-(1-Morpholin-4-ylmethyl-cyclopropyl)-4-phenyl-isoxazol-3-yl]-phenol]
202	30.7	302	4.3	CC(=O)SCC1(c2onc(-c3ccc(O)cc3)c2-c2ccccc2)CC1 [Example 37, Thioacetic acid S-{1-[3-(4-hydroxy-phenyl)-4-phenyl-isoxazol-5-yl]-cyclopropylmethyl} ester]
1130	11.4	749	6.6	CSCC1(c2onc(-c3ccc(O)cc3)c2-c2ccccc2)CC1 [Example 38, 4-[5-(1-Methylsulfanylmethyl-cyclopropyl)-4-phenyl-isoxazol-3-yl]-phenol]
107	39.5	139	1.12	Oc1ccc(-c2noc(C3(CSc4ccccc4)CC3)c2-c2ccccc2)cc1 [Example 40, 4-[4-Phenyl-5-(1-phenylsulfanylmethyl-cyclopropyl)-isoxazol-3-yl]-phenol]
37.7	51.7	198	6.17	N#CCC1(c2onc(-c3ccc(O)cc3)c2-c2ccccc2)CC1 [Example 42, {1-[3-(4-Hydroxy-phenyl)-4-phenyl-isoxazol-5-yl]-cyclopropyl}-acetonitrile]
45.6	85.4	71.1	79	COCC(=O)OCC1(c2onc(-c3ccc(O)cc3)c2-c2ccccc2)CC1 [Example 53]
38.8	60.4	108	65.8	CC(=O)OCC1(c2onc(-c3ccc(O)cc3)c2-c2ccccc2)CC1 [Example 54]
5.7	55.8	23.6	32.6	CC(C)CC(=O)OCC1(c2onc(-c3ccc(O)cc3)c2-c2ccccc2)CC1 [Example 55]
11.1	42.1	30.6	3	Cc1noc(C)c1C(=O)OCC1(c2onc(-c3ccc(O)cc3)c2-c2ccccc2)CC1 [Example 56]
245	71.9	137	112	CCC(=O)OCC1(c2onc(-c3ccc(O)cc3)c2-c2ccccc2)CC1 [Example 57]
137	59.9	97.9	92	CCCC(=O)OCC1(c2onc(-c3ccc(O)cc3)c2-c2ccccc2)CC1 [Example 58]
